Values of other authors, collected in patent publication US20190275102A1, “STERILE INJECTABLE COMPOSITION COMPRISING CARFILZOMIB” (CADILA HEALTHCARE LIMITED, priority 2018, published 2019).

Row | Molecule | solubility in acidic conditions (acidic conditions) | solubility in water (water) | single dose showing renal tolerance (kidney; animal trials, single-dose studies, i.v.) | dose with evidence of renal cellular toxicity (kidney; in vivo) [mg/kg/day] | renal function (kidney; in vivo)
1 | CC(C)C[C@H](NC(=O)[C@H](CCc1ccccc1)NC(=O)CN1CCOCC1)C(=O)N[C@@H](Cc1ccccc1)C(=O)N[C@@H](CC(C)C)C(=O)[C@@]1(C)CO1 [Carfilzomib, (2S)—N—((S)-1-((S)-4-methyl-1-((R)-2-methytoxiran2-yl)-1-oxopentan-2-ylcarbamoyl)-2-phenylethyl)-2-((S)-2-(2-morpholinoacetamido)-4-phenylbutanamido)-4-methylpentanamide] | very slightly soluble | practically insoluble | – | – | –
2 | sulfobutylether beta-cyclodextrin | – | – | up to 2000 mg/kg | ≥ 160 | not impaired
